The experiment has as its system L1210 leukemia ip in BDF1 mice, survival T/C. As to the kind of experiment: NCI In Vivo Anticancer Drug Screen. Data for tumor model L1210 Leukemia (intraperitoneal) in B6D2F1 (BDF1) mice. To be noted: higher = longer survival. Summed up: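 Read-out is survival time, reported as the treated-group measurement over the vehicle-control measurement.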
Where [1] appears, read: endpoint: mean survival time, dose: 50.0 mg/kg/injection, schedule: Q01DX009 (ip), vehicle: saline.
The mark [2] stands for this setting: endpoint: mean survival time, dose: 100.0 mg/kg/injection, schedule: Q01DX001 (ip), vehicle: saline.
[3] abbreviates: endpoint: mean survival time, dose: 200.0 mg/kg/injection, schedule: Q01DX001 (ip), vehicle: saline.
The mark [4] stands for this setting: endpoint: mean survival time, dose: 400.0 mg/kg/injection, schedule: Q01DX001 (ip), vehicle: saline.

Inconclusive results and toxic doses are left out.

Consider `CC1CC(C)(O)CC(C(O)CC2CC(=O)NC(=O)C2)C1=O` (configuration not stated), for which the T/C is, setting by setting: (endpoint: mean survival time, dose: 0.02 mg/kg/injection, schedule: Q03HX024 (ip), vehicle: saline) 109 % of control; (endpoint: mean survival time, dose: 0.03 mg/kg/injection, schedule: Q01DX Z (ip), vehicle: other) 118 % of control; (endpoint: mean survival time, dose: 0.04 mg/kg/injection, schedule: Q03HX016 (ip), vehicle: saline) 111 % of control; (endpoint: mean survival time, dose: 0.04 mg/kg/injection, schedule: Q03HX024 (ip), vehicle: saline) 117 % of control; (endpoint: mean survival time, dose: 0.08 mg/kg/injection, schedule: Q01DX005 (ip), vehicle: saline) 120 % of control; (endpoint: mean survival time, dose: 0.08 mg/kg/injection, schedule: Q01DX005 (iv), vehicle: saline) 108 % of control. The T/C is 155 % of control (endpoint: mean survival time, dose: 0.08 mg/kg/injection, schedule: Q01DX009 (ip), vehicle: saline); 123 % of control (endpoint: mean survival time, dose: 0.08 mg/kg/injection, schedule: Q01DX Z (ip), vehicle: methylcellulose (MC)); 119 % of control (endpoint: mean survival time, dose: 0.08 mg/kg/injection, schedule: Q01DX Z (ip), vehicle: other); 117 % of control (endpoint: mean survival time, dose: 0.08 mg/kg/injection, schedule: Q03HX016 (ip), vehicle: saline); 115 % of control (endpoint: mean survival time, dose: 0.15 mg/kg/injection, schedule: Q01DX005 (iv), vehicle: saline); 87 % of control (endpoint: mean survival time, dose: 0.15 mg/kg/injection, schedule: Q01DX009 (ip), vehicle: saline). Moreover, the T/C runs as follows: (endpoint: mean survival time, dose: 0.15 mg/kg/injection, schedule: Q01DX009 (oral), vehicle: saline) 109 % of control; (endpoint: mean survival time, dose: 0.15 mg/kg/injection, schedule: Q03HX024 (ip), vehicle: saline) 155 % of control; (endpoint: mean survival time, dose: 0.3 mg/kg/injection, schedule: Q01DX001 (iv), vehicle: saline) 105 % of control; (endpoint: mean survival time, dose: 0.3 mg/kg/injection, schedule: Q01DX009 (oral), vehicle: saline) 117 % of control; (endpoint: mean survival time, dose: 0.3 mg/kg/injection, schedule: Q01DX Z (ip), vehicle: methylcellulose (MC)) 155 % of control; (endpoint: mean survival time, dose: 0.3 mg/kg/injection, schedule: Q01DX Z (ip), vehicle: other) 157 % of control. Also, the T/C is 161 % of control (endpoint: mean survival time, dose: 0.3 mg/kg/injection, schedule: Q03HX016 (ip), vehicle: saline); 157 % of control (endpoint: mean survival time, dose: 0.3 mg/kg/injection, schedule: Q03HX024 (ip), vehicle: saline); 105 % of control (endpoint: mean survival time, dose: 0.3 mg/kg/injection, schedule: Q11DX001 (ip), vehicle: saline); 112 % of control (endpoint: mean survival time, dose: 0.3 mg/kg/injection, schedule: Q14DX008 (ip), vehicle: saline); 110 % of control (endpoint: mean survival time, dose: 0.6 mg/kg/injection, schedule: Q01DX001 (iv), vehicle: saline); 112 % of control (endpoint: mean survival time, dose: 0.6 mg/kg/injection, schedule: Q01DX005 (iv), vehicle: saline). For the same compound, the T/C is 95 % of control (endpoint: mean survival time, dose: 0.6 mg/kg/injection, schedule: Q01DX009 (oral), vehicle: saline); 92 % of control (endpoint: mean survival time, dose: 0.6 mg/kg/injection, schedule: Q01DX Z (ip), vehicle: methylcellulose (MC)); 124 % of control (endpoint: mean survival time, dose: 0.6 mg/kg/injection, schedule: Q08DX002 (ip), vehicle: saline); 114 % of control (endpoint: mean survival time, dose: 0.6 mg/kg/injection, schedule: Q11DX001 (ip), vehicle: saline); 116 % of control (endpoint: mean survival time, dose: 0.6 mg/kg/injection, schedule: Q14DX008 (ip), vehicle: saline); 95 % of control (endpoint: mean survival time, dose: 0.9 mg/kg/injection, schedule: Q01DX Z (ip), vehicle: other). Besides, the T/C was 121 % of control (endpoint: mean survival time, dose: 1.2 mg/kg/injection, schedule: Q01DX001 (iv), vehicle: saline); 88 % of control (endpoint: mean survival time, dose: 1.2 mg/kg/injection, schedule: Q01DX005 (ip), vehicle: saline); 113 % of control (endpoint: mean survival time, dose: 1.2 mg/kg/injection, schedule: Q11DX001 (ip), vehicle: saline); 109 % of control (endpoint: mean survival time, dose: 1.2 mg/kg/injection, schedule: Q11DX001 (oral), vehicle: saline); 113 % of control (endpoint: mean survival time, dose: 1.2 mg/kg/injection, schedule: Q14DX008 (ip), vehicle: saline); 87 % of control (endpoint: mean survival time, dose: 1.35 mg/kg/injection, schedule: Q01DX Z (ip), vehicle: other). Moreover, the T/C is 118 % of control (endpoint: mean survival time, dose: 2.4 mg/kg/injection, schedule: Q01DX001 (iv), vehicle: saline); 154 % of control (endpoint: mean survival time, dose: 2.4 mg/kg/injection, schedule: Q04DX003 (ip), vehicle: saline); 112 % of control (endpoint: mean survival time, dose: 2.4 mg/kg/injection, schedule: Q11DX001 (ip), vehicle: saline); 101 % of control (endpoint: mean survival time, dose: 2.4 mg/kg/injection, schedule: Q11DX001 (oral), vehicle: saline); 108 % of control (endpoint: mean survival time, dose: 2.4 mg/kg/injection, schedule: Q14DX008 (ip), vehicle: saline); 108 % of control (endpoint: mean survival time, dose: 4.8 mg/kg/injection, schedule: Q11DX001 (ip), vehicle: saline). Besides, the T/C reads like this: (endpoint: mean survival time, dose: 10.0 micrograms/kg/injection, schedule: Q01DX Z (ip), vehicle: other) 100 % of control; (endpoint: mean survival time, dose: 20.0 micrograms/kg/injection, schedule: Q01DX Z (ip), vehicle: other) 102 % of control; (endpoint: mean survival time, dose: 40.0 micrograms/kg/injection, schedule: Q01DX Z (ip), vehicle: other) 110 % of control; (endpoint: mean survival time, dose: 80.0 micrograms/kg/injection, schedule: Q01DX Z (ip), vehicle: other) 115 % of control; (endpoint: median survival time, dose: 2.0 mg/kg/injection, schedule: Q04DX003 (ip), vehicle: saline) 154 % of control.

`FC(F)(F)C(F)(F)C1=NS1(F)C(F)(C(F)(F)F)C(F)(F)F` (configuration not stated): the T/C was 100 % of control (endpoint: mean survival time, dose: 100.0 mg/kg/injection, schedule: Q01DX001 (ip), vehicle: acetone); 97 % of control (endpoint: mean survival time, dose: 200.0 mg/kg/injection, schedule: Q01DX001 (ip), vehicle: acetone); 97 % of control (endpoint: mean survival time, dose: 400.0 mg/kg/injection, schedule: Q01DX001 (ip), vehicle: acetone).

For `COC(=O)c1cc(Cl)cc(NC(C)=O)c1Cl`, the T/C (endpoint: mean survival time, dose: 100.0 mg/kg/injection, schedule: Q04DX002 (ip), vehicle: Klucel (hydroxypropylcellulose) (HPC)) was 97 % of control; the T/C (endpoint: mean survival time, dose: 200.0 mg/kg/injection, schedule: Q04DX002 (ip), vehicle: Klucel (hydroxypropylcellulose) (HPC)) is 97 % of control; the T/C (endpoint: mean survival time, dose: 400.0 mg/kg/injection, schedule: Q04DX002 (ip), vehicle: Klucel (hydroxypropylcellulose) (HPC)) is 97 % of control.

`C=CCc1cc(CNCCCO)c(O)c(OC)c1`: the T/C runs as follows: (endpoint: mean survival time, dose: 25.0 mg/kg/injection, schedule: Q04DX003 (ip), vehicle: Klucel (hydroxypropylcellulose) (HPC)) 93 % of control; (endpoint: mean survival time, dose: 50.0 mg/kg/injection, schedule: Q04DX003 (ip), vehicle: Klucel (hydroxypropylcellulose) (HPC)) 95 % of control; (endpoint: mean survival time, dose: 100.0 mg/kg/injection, schedule: Q04DX003 (ip), vehicle: Klucel (hydroxypropylcellulose) (HPC)) 93 % of control.

As for `CCCCN(C)c1ncnc2[nH]ncc12`, the T/C (endpoint: mean survival time, dose: 50.0 mg/kg/injection, schedule: Q01DX001 (ip), vehicle: saline) is 104 % of control; the T/C under setting [1] was 116 % of control; the T/C (endpoint: mean survival time, dose: 50.0 mg/kg/injection, schedule: Q04DX003 (ip), vehicle: saline) is 106 % of control; the T/C under setting [2] was 106 % of control; the T/C (endpoint: mean survival time, dose: 100.0 mg/kg/injection, schedule: Q04DX003 (ip), vehicle: saline) is 110 % of control; the T/C under setting [3] was 104 % of control. The T/C (endpoint: mean survival time, dose: 200.0 mg/kg/injection, schedule: Q04DX003 (ip), vehicle: saline) was 100 % of control.

Take `CCCCC(CC)CCC(O)CC` (configuration not stated): the T/C (endpoint: mean survival time, dose: 100.0 mg/kg/injection, schedule: Q01DX009 (ip), vehicle: saline with Tween-80) is 98 % of control; the T/C (endpoint: mean survival time, dose: 100.0 mg/kg/injection, schedule: Q04DX003 (ip), vehicle: saline with Tween-80) is 98 % of control; the T/C (endpoint: mean survival time, dose: 200.0 mg/kg/injection, schedule: Q01DX009 (ip), vehicle: saline with Tween-80) is 101 % of control; the T/C (endpoint: mean survival time, dose: 200.0 mg/kg/injection, schedule: Q04DX003 (ip), vehicle: saline with Tween-80) was 95 % of control; the T/C (endpoint: mean survival time, dose: 400.0 mg/kg/injection, schedule: Q01DX009 (ip), vehicle: saline with Tween-80) was 97 % of control; the T/C (endpoint: mean survival time, dose: 400.0 mg/kg/injection, schedule: Q04DX003 (ip), vehicle: saline with Tween-80) is 98 % of control.

As to `CC(=O)SC1CC(=O)OC1=O` (configuration not stated), the T/C by setting is: under setting [1], 96 % of control; under setting [2], 96 % of control; (endpoint: mean survival time, dose: 100.0 mg/kg/injection, schedule: Q01DX009 (ip), vehicle: saline) 102 % of control; under setting [3], 104 % of control; under setting [4], 98 % of control.

Regarding `NC(=O)CN(CC(N)=O)CC(N)=O`, the T/C reads like this: under setting [2], 102 % of control; under setting [3], 98 % of control; under setting [4], 102 % of control.

The record behind these values is PubChem BioAssay AID248 (DTP/NCI, 2004).
